In ChEMBL document CHEMBL4680139, “Antiproliferative activity of diarylnaphthylpyrrolidine derivative via dual target inhibition” (Eur J Med Chem, 2020):
≈ marks a conversion by molar mass, not a printed value.

Experiments:
[1] = tested on: MDA-MB-231; assay: Induction of apoptosis in human MDA-MB-231 cells assessed as proportion of viable cells at 1 ug measured after 24 hrs by Annexin V-FITC/propidium iodide staining based flow cytometry (reference value: 99%); type: functional; settings: dose 1 µg
[2] = tested on: MDA-MB-231; assay: Induction of apoptosis in human MDA-MB-231 cells assessed as proportion of early apoptotic cells at 1 ug measured after 24 hrs by Annexin V-FITC/propidium iodide staining based flow cytometry (reference value: 0.2%); type: functional; settings: dose 1 µg
[3] = tested on: MDA-MB-231; assay: Antiproliferative activity against human MDA-MB-231 cells assessed as inhibition of cell growth measured after 48 hrs by SRB assay; type: functional, cell-based; settings: MDA-MB-231, 48 h
[4] = tested on: A549; assay: Antiproliferative activity against human A549 cells assessed as inhibition of cell growth measured after 48 hrs by SRB assay; type: functional, cell-based; settings: A549, 48 h
[5] = tested on: MDA-MB-231; assay: Induction of apoptosis in human MDA-MB-231 cells assessed as proportion of late apoptotic cells at 1 ug measured after 24 hrs by Annexin V-FITC/propidium iodide staining based flow cytometry (reference value: 0.5%); type: functional; settings: dose 1 µg
[6] = tested on: MDA-MB-231; assay: Induction of apoptosis in human MDA-MB-231 cells assessed as proportion of necrotic cells at 1 ug measured after 24 hrs by Annexin V-FITC/propidium iodide staining based flow cytometry (reference value: 0.2%); type: functional; settings: dose 1 µg
[7] = tested on: HCT-116; assay: Antiproliferative activity against human HCT-116 cells assessed as inhibition of cell growth measured after 48 hrs by SRB assay; type: functional, cell-based; settings: HCT-116, 48 h
[8] = tested on: MCF7; assay: Antiproliferative activity against human MCF-7 cells assessed as inhibition of cell growth measured after 48 hrs by SRB assay; type: functional, cell-based; settings: MCF7, 48 h
[9] = tested on: THP-1; assay: Antiproliferative activity against human THP-1 cells assessed as inhibition of cell growth measured after 48 hrs by SRB assay; type: functional, cell-based; settings: THP-1, 48 h
[10] = Inhibition of bovine brain tubulin polymerisation measured by turbidometric method; type: tissue-based, Bos taurus
[11] = target: DNA topoisomerase 2-alpha (Homo sapiens) (UniProt P11388); assay: Inhibition of DNA-topoisomerase 2 in human MCF7 cells using kinetoplast DNA as substrate at 120 uM measured by ELISA; type: cell-based
DNA topoisomerase 2-alpha (Homo sapiens), sequence (P11388 whole entry): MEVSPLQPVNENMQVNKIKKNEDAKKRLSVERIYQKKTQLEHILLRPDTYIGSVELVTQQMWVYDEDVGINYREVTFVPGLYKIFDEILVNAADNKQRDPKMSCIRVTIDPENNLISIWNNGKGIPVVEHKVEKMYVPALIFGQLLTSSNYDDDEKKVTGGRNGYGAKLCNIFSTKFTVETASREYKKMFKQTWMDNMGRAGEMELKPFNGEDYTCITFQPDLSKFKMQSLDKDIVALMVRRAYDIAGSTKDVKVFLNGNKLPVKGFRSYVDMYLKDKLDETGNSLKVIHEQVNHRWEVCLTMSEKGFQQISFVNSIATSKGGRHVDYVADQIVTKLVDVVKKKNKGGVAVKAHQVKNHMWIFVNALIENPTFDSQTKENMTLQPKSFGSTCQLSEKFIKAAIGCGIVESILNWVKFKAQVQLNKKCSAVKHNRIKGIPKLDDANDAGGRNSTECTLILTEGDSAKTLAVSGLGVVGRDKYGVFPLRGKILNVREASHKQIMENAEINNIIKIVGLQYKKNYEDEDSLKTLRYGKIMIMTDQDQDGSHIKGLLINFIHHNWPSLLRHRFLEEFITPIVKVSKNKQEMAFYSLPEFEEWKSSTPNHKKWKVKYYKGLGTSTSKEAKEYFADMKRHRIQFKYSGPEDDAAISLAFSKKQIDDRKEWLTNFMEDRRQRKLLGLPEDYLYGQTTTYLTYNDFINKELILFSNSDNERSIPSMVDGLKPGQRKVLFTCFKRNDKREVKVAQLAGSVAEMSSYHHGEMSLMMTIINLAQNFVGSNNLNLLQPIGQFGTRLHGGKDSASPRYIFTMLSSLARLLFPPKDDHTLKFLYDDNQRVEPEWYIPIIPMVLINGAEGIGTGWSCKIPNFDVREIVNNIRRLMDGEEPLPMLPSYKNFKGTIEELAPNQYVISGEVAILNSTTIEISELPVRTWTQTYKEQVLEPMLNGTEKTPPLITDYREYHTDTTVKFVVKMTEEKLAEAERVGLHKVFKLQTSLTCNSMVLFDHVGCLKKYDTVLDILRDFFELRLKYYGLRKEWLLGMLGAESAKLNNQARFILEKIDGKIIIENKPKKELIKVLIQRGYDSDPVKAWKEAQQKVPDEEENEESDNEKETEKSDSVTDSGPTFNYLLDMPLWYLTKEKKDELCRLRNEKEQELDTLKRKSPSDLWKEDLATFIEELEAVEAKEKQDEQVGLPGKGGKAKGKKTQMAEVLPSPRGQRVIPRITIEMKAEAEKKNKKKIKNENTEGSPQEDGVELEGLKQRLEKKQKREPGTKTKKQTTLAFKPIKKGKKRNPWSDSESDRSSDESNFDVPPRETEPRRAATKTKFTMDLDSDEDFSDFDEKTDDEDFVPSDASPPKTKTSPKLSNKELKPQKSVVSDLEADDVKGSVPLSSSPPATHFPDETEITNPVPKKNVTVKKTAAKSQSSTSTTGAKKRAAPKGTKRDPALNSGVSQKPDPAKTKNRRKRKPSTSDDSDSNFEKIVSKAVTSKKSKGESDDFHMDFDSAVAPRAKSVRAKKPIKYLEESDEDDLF

[12] = tested on: MCF7; assay: Antiproliferative activity against human MCF-7 cells assessed as inhibition of colony formation measured after 3 weeks by crystal violet staining based soft agar colony formation assay; type: functional, cell-based; settings: MCF7, 504 h

SMILES | Activity [1] [%] | Activity [2] [%] | IC50 [3] [µM] | IC50 [4] [µM] | Activity [5] [%] | Activity [6] [%] | IC50 [7] [µM] | IC50 ([3]; read-out: IC50) [µM] | IC50 [8] [µM] | IC50 [9] [µM] | IC50 [10] [µM] | inhibition [11] [%] | IC50 [12] [µg/mL]
COc1cccc2c1C(=O)c1c(O)c3c(c(O)c1C2=O)C[C@@](O)(C(=O)CO)C[C@@H]3O[C@H]1C[C@H](N)[C@H](O)[C@H](C)O1 [DOXORUBICIN] | 13.7 | 0.1 | 5.12 | 0.63 | 6.2 | 80.1 |  |  |  |  |  |  | 
CCN(CC)CCOc1ccc(C(c2ccc(OC)c(OC)c2OC)c2cccc3ccccc23)cc1 (stereo unspecified) |  |  |  | 11.5 |  |  | 8.34 | 15.6 | 15.5 | 13.9 |  |  | 
C=C(c1ccc(OC)c(OC)c1OC)c1cccc2ccccc12 |  |  |  | 19.8 |  |  | > 20 | 4.66 | 11.7 | 12.5 | 9.03 |  | 
COc1ccc(/C(=C/c2ccc(C)cc2)c2cccc3ccccc23)c(OC)c1OC |  |  |  | 19.6 |  |  | > 20 | 8.31 | > 20 | > 20 |  |  | 
COc1ccc(C(c2ccc(OCCO)cc2)c2cccc3ccccc23)c(OC)c1OC (stereo unspecified) |  |  |  | > 20 |  |  | > 20 | > 20 | > 20 | 16.6 |  |  | 
COc1ccc(C(OCCN(C)C)c2cccc3ccccc23)c(OC)c1OC (stereo unspecified) |  |  |  | 17.9 |  |  | > 20 | > 20 | 11.1 | > 20 |  |  | 
COc1cc([C@@H]2c3cc4c(cc3[C@H](O)[C@H]3COC(=O)[C@H]23)OCO4)cc(OC)c1OC [PODOFILOX] |  |  |  | 7.34 |  |  | > 20 | 5.73 | 10.9 | 19.6 | 0.72 | 26.9 | 
COc1ccc(C(c2ccc(OCCN(C)C)cc2)c2cccc3ccccc23)c(OC)c1OC (stereo unspecified) |  |  |  | 10.2 |  |  | 3.3 | 14.3 | 15.2 | 7.95 |  |  | 
COc1ccc(/C(=N/OC(C)=O)c2cccc3ccccc23)c(OC)c1OC |  |  |  | 17.2 |  |  | 4.98 | 17 | > 20 | > 20 |  |  | 
COc1ccc(C(c2ccc(OC(C)CN(C)C)cc2)c2cccc3ccccc23)c(OC)c1OC (stereo unspecified) |  |  |  | 11.4 |  |  | 8.41 | 4.34 | 13.1 | 15 |  |  | 
COc1ccc(/C(=C/c2ccc(F)cc2)c2cccc3ccccc23)c(OC)c1OC |  |  |  | 18.6 |  |  | > 20 | > 20 | 10.5 | 18.9 |  |  | 
C=CCC(O)(c1ccc(OC)c(OC)c1OC)c1cccc2ccccc12 (stereo unspecified) |  |  |  | 10.7 |  |  | > 20 | > 20 | > 20 | > 20 |  |  | 
CC/C(=C(\c1ccccc1)c1ccc(OCCN(C)C)cc1)c1ccccc1 [TAMOXIFEN] |  |  |  | 10.1 |  |  | 45 | > 20 |  | 11.9 |  |  | 1.31 (≈ 3.53 µM)
COc1ccc(C(OCc2ccc(C)cc2)c2cccc3ccccc23)c(OC)c1OC (stereo unspecified) |  |  |  | 15.7 |  |  | > 20 | > 20 | 10.7 | > 20 |  |  | 
COc1ccc(/C(=N/OCC(=O)O)c2cccc3ccccc23)c(OC)c1OC |  |  |  | 17.2 |  |  | 4.98 | > 20 | > 20 | > 20 |  |  | 
COc1ccc(C(c2ccc(OCCN3CCCCC3)cc2)c2cccc3ccccc23)c(OC)c1OC (stereo unspecified) |  |  |  | 15 |  |  | 11.9 | 15.2 | 15.4 | 16.6 |  |  | 
CCOC(=O)CO/N=C(/c1ccc(OC)c(OC)c1OC)c1cccc2ccccc12 |  |  |  | 6.72 |  |  | 3.36 | 16.4 | > 20 | > 20 |  |  | 
COc1ccc(C(OCc2ccccc2)c2cccc3ccccc23)c(OC)c1OC (stereo unspecified) |  |  |  | 13.5 |  |  | > 20 | > 20 | 14.1 | > 20 |  |  | 

SMILES | Activity [1] [%] | Activity [2] [%] | IC50 [3] [µM] | IC50 [4] [µM] | Activity [5] [%] | Activity [6] [%] | IC50 [7] [µM] | IC50 ([3]; read-out: IC50) [µM] | IC50 [8] [µM] | IC50 [9] [µM] | IC50 [10] [µM] | inhibition [11] [%] | IC50 [12] [µg/mL]
C=CCOC(c1ccc(OC)c(OC)c1OC)c1cccc2ccccc12 (stereo unspecified) |  |  |  | 9.71 |  |  | > 20 | > 20 | > 20 | > 20 |  |  | 
CCOC(=O)CCO/N=C(/c1ccc(OC)c(OC)c1OC)c1cccc2ccccc12 |  |  |  | 19.6 |  |  | 10 | 15.2 | > 20 | > 20 |  |  | 
COc1ccc(C(c2ccc(OCC(=O)O)cc2)c2cccc3ccccc23)c(OC)c1OC (stereo unspecified) |  |  |  | 16.4 |  |  | 5.02 | > 20 | > 20 | > 20 |  |  | 
COc1cc(COC(c2ccc(OC)c(OC)c2OC)c2cccc3ccccc23)cc(OC)c1 (stereo unspecified) |  |  |  | 17.5 |  |  | > 20 | > 20 | > 20 | > 20 |  |  | 
COc1ccc(C(O)(Cc2ccc(C)cc2)c2cccc3ccccc23)c(OC)c1OC (stereo unspecified) |  |  |  | 18.7 |  |  | > 20 | > 20 | > 20 | > 20 |  |  | 
COc1ccc(C(O)(C/C=C\c2ccccc2)c2cccc3ccccc23)c(OC)c1OC (stereo unspecified) |  |  |  | 17.6 |  |  | > 20 | 12.8 | 10.2 | 19.4 |  |  | 
COc1ccc(C(O)(Cc2ccccc2)c2cccc3ccccc23)c(OC)c1OC (stereo unspecified) |  |  |  | > 20 |  |  | > 20 | 4.78 | 10.6 | 12.4 | 6.02 |  | 
CCOC(=O)C(C)C(O)(c1ccc(OC)c(OC)c1OC)c1cccc2ccccc12 (stereo unspecified) |  |  |  | 4 |  |  | > 20 | > 20 | > 20 | > 20 |  |  | 
CCOC(=O)/C=C/CO/N=C(/c1ccc(OC)c(OC)c1OC)c1cccc2ccccc12 |  |  |  | 14 |  |  | > 20 | > 20 | > 20 | > 20 |  |  | 
COc1ccc(C(c2ccc(O)cc2)c2cccc3ccccc23)c(OC)c1OC (stereo unspecified) |  |  |  | 16.4 |  |  | 16 | 17.4 | 17.5 | 9.45 |  |  | 
COC(=O)c1ccc(COC(c2ccc(OC)c(OC)c2OC)c2cccc3ccccc23)cc1 (stereo unspecified) |  |  |  | 12 |  |  | > 20 | > 20 | > 20 | > 20 |  |  | 
COc1ccc(/C(=N/O)c2cccc3ccccc23)c(OC)c1OC |  |  |  | 13.1 |  |  | 5.88 | 2.5 | > 20 | > 20 | 5.58 |  | 
COc1ccc(C(c2ccccc2OCCN2CCCCC2)c2cccc3ccccc23)c(OC)c1OC (stereo unspecified) |  |  |  | 9.86 |  |  | 4.63 | 7.18 | 12.4 | 19.1 |  |  | 
COc1ccc(C(c2ccccc2O)c2cccc3ccccc23)c(OC)c1OC (stereo unspecified) |  |  |  | 13.6 |  |  | > 20 | 17.7 | 16.6 | > 20 |  |  | 
COc1ccc(C(O)(Cc2ccc(F)cc2)c2cccc3ccccc23)c(OC)c1OC (stereo unspecified) |  |  |  | 5.94 |  |  | > 20 | 5.44 | 7.56 | 5.86 |  |  | 
COc1ccc(/C(=C\c2ccc(F)cc2)c2cccc3ccccc23)c(OC)c1OC |  |  |  | > 20 |  |  | > 20 | 16.2 | 17.7 | 9.08 |  |  | 
COc1ccc(C(c2ccc(OCCN3CCCC3)cc2)c2cccc3ccccc23)c(OC)c1OC (stereo unspecified) |  |  |  | 15.8 |  |  | 10.8 | 14.4 | 15.3 | 5.4 |  |  | 
